Source: patent publication US20230382924A1, “MODULATORS OF CYSTIC FIBROSIS TRANSMEMBRANE CONDUCTANCE REGULATOR” (VERTEX PHARMACEUTICALS INCORPORATED, priority 2020, published 2023)
Where two headings read alike, the source gives them in different places.

Target: CFTR (Homo sapiens, UniProt P13569)
Experiment: Membrane Potential Dye, Enteroid Assay A
Type: cell-based
Conditions: for EC50: read-out: Ent. A EC50
How it was run: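 Signal is reported as % Activity relative to a triple CFTR modulator control (3 μM + 3 μM + 300 nM acute). Read-out: membrane potential fluorescence (20 μM methyl oxonol) monitored for 15 min after chloride-free stimulation. Dye loading took 25 min at room temperature in Bath 1 buffer containing CaCC blockers.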

Chain of CFTR (P13569 with tags, fused parts or gaps DEL508-508): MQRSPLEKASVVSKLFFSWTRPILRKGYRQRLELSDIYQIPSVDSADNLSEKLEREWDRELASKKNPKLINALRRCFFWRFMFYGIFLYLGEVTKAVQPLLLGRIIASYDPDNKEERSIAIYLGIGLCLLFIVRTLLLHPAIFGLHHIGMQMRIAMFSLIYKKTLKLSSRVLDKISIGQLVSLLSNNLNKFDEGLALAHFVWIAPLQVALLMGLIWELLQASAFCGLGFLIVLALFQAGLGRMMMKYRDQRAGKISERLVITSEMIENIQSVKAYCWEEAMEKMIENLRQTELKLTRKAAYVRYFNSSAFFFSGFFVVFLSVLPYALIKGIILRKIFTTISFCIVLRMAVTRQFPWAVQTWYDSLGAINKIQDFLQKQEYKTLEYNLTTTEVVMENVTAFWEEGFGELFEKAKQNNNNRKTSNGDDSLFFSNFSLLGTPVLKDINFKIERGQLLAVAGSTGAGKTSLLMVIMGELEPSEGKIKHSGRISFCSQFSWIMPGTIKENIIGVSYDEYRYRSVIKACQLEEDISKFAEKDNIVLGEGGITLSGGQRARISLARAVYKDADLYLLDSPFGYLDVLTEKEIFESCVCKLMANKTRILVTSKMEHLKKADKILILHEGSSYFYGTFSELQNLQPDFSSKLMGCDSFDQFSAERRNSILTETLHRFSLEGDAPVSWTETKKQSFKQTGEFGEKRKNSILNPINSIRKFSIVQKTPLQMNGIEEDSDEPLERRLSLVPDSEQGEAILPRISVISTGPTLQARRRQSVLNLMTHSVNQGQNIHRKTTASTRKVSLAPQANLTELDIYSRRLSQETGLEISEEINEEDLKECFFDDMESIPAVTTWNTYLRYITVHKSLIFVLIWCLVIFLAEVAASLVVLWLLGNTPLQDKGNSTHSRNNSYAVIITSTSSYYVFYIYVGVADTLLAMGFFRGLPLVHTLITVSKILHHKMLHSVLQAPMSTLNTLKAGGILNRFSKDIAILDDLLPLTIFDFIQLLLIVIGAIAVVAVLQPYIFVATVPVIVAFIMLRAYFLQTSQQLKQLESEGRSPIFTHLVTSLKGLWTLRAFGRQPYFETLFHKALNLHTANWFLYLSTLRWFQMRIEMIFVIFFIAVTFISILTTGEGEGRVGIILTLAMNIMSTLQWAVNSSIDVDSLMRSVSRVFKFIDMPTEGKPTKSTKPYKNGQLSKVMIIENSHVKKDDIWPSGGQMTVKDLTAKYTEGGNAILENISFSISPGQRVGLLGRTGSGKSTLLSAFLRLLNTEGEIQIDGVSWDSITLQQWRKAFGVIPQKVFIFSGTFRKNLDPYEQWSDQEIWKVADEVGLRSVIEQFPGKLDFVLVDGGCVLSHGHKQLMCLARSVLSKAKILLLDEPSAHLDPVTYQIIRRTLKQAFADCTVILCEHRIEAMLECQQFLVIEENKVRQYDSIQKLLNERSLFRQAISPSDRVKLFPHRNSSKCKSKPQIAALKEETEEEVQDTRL

CCC(CC)(CC)c1ccc([C@@H]2CNC(=O)c3cccc(c3)S(=O)(=O)Nc3nc(cc(-c4c(C)cccc4C)n3)O2)cc1 [Compound 259]
Ent. A Max Activity (Table 9): + (+ is <30%)
EC50 (Table 9): < 1000 nM

Cc1cccc(C)c1-c1cc2nc(n1)NS(=O)(=O)c1cccc(c1)C(=O)NCC1(CCN(C(=O)c3ccccc3)CC1)CO2 [Compound 474]
EC50 (Enteroid Assay A): 3000 to 30000 nM

Cc1cccc(C)c1-c1cc2nc(n1)NS(=O)(=O)c1cccc(c1)C(=O)NC[C@@H](c1cccc(C(C)(C)C)c1)O2 [Compound 273]
Ent. A Max Activity (Table 8): +++ (+++ is >60%)
EC50 (Table 8): < 1000 nM

CC(C)C[C@@H]1COc2cc(C3=CC(C)CC3(C)C)nc(n2)NS(=O)(=O)c2cccc(c2)C(=O)N1 (stereo partly drawn) [Compound 320]
Ent. A Max Activity (Enteroid Assay A): ++ (++ is 30-60%)
EC50 (Enteroid Assay A): < 1000 nM

CC(C)C[C@@H]1COc2cc(-c3ccccc3Oc3ccccc3)nc(n2)NS(=O)(=O)c2cccc(c2)C(=O)N1 [Compound 392]
Ent. A Max Activity (Table 9): ++ (++ is 30-60%)
EC50 (Table 9): < 1000 nM

Cc1cccc(C)c1-c1cc2nc(n1)NS(=O)(=O)c1cccc(c1)C(=O)NCC(c1cccc(C#N)c1)O2 (stereo not drawn) [Compound 252]
EC50 (Table 8): 3000 to 30000 nM

Cc1cccc(C)c1-c1cc2nc(n1)NS(=O)(=O)c1cccc(c1)C(=O)NC1(CCN(CCC(C)(C)C)CC1)CO2 [Compound 86, 1′-(3,3-Dimethylbutyl)-6-(2,6-dimethylphenyl)-2,2-dioxo-spiro[9-oxa-2λ^6-thia-3,5,12,19-tetrazatricyclo[12.3.1.14,8]nonadeca-1(18),4(19),5,7,14,16-hexaene-11,4′-piperidine]-13-one]
Ent. A Max Activity (Table 9): +++ (+++ is >60%)
EC50 (Table 9): 1000 to 3000 nM

COc1cccc(C)c1-c1cc2nc(n1)NS(=O)(=O)c1cccc(c1)C(=O)N[C@H](CC(C)(C)C)CO2 [Compound 304]
Ent. A Max Activity (Table 8): +++ (+++ is >60%)
EC50 (Table 8): 1000 to 3000 nM

CC(C)C[C@@H]1COc2cc(-n3ccc(C(F)(F)F)n3)nc(n2)NS(=O)(=O)c2cccc(c2)C(=O)N1 [Compound 308]
Ent. A Max Activity (Table 8): + (+ is <30%)

Cc1cccc(C)c1-c1cc2cc(n1)NS(=O)(=O)c1cccc(c1)C(=O)N[C@H](CC(C)C)CO2 [Compound 296]
Ent. A Max Activity (Table 8): +++ (+++ is >60%)
EC50 (Table 8): < 1000 nM

Cc1cccc(C)c1-c1cc2nc(n1)NS(=O)(=O)c1cccc(c1)C(=O)N[C@@H]1CN(Cc3ccccc3)CC[C@H]1O2 [Compound 61, (3R,8R)-6-Benzyl-20-(2,6-dimethylphenyl)-2-oxa-16λ^6-thia-6,9,17,19,22-pentaazatetracyclo[16.3.1.111,15.03,8]tricosa-1(21),11,13,15(23),18(22),19-hexaene-10,16,16-trione]
Ent. A Max Activity (Table 9): +++ (+++ is >60%)
EC50 (Table 9): < 1000 nM

Cc1cccc(C)c1-c1cc2nc(n1)NS(=O)(=O)c1cccc(c1)C(=O)NCC(Cc1ccc(C(C)(C)C)cc1)O2 (stereo not drawn) [Compound 242]
EC50 (Table 8): < 1000 nM

Cc1cccc(C)c1-c1cc2nc(n1)NS(=O)(=O)c1cccc(c1)C(=O)NCC(c1ccc(C34CC(C3)C4)cc1)O2 (stereo not drawn) [Compound 398]
Ent. A Max Activity (Table 9): +++ (+++ is >60%)
EC50 (Table 9): < 1000 nM

Cc1cccc(C)c1-c1cc2nc(n1)NS(=O)(=O)c1cccc(c1)C(=O)N[C@H]1CCN(CCC(C)(C)C)C[C@H]1O2 (single isomer, unassigned) [Compound 90, 5-(3,3-dimethylbutyl)-20-(2,6-dimethylphenyl)-2-oxa-16λ^6-thia-5,9,17,19,22-pentaazatetracyclo[16.3.1.111,15.03,8]tricosa-1(21),11(23),12,14,18(22),19-hexaene-10,16,16-trione]
Ent. A Max Activity (Table 9): +++ (+++ is >60%)
EC50 (Table 9): 1000 to 3000 nM

Cc1cccc(C)c1-c1cc2nc(n1)NS(=O)(=O)c1cc(cc(C3CCCCC3)c1)C(=O)N[C@H](CC(C)C)CO2 [Compound 137]
Ent. A Max Activity (Table 8): + (+ is <30%)

CCC(C)(C)c1ccc(C2CNC(=O)c3cccc(c3)S(=O)(=O)Nc3nc(cc(-c4c(C)cccc4C)n3)O2)cc1 (stereo not drawn) [Compound 153]
Ent. A Max Activity (Table 8): + (+ is <30%)
EC50 (Table 8): 3000 to 30000 nM

Cc1cccc(C)c1-c1cc2nc(n1)NS(=O)(=O)c1cccc(c1)C(=O)NCC(c1ccccn1)O2 (stereo not drawn) [Compound 234]
Ent. A Max Activity (Table 8): + (+ is <30%)

Cc1cccc(C)c1-c1cc2nc(n1)NS(=O)(=O)c1cccc(c1)C(=O)N[C@@H](CCC(C)(C)C)CO2 (single isomer, unassigned) [Compound 48]
Ent. A Max Activity (Table 8): + (+ is <30%)
EC50 (Table 8): < 1000 nM

Cc1cccc(C)c1-c1cc2nc(n1)NS(=O)(=O)c1cccc(c1)C(=O)NCC1(CCN(C(=O)[C@]3(C)CCCN3C(=O)OC(C)(C)C)CC1)CO2 [Compound 472]
Ent. A Max Activity (Enteroid Assay A): ++ (++ is 30-60%)
EC50 (Enteroid Assay A): 3000 to 30000 nM

Cc1cccc(C)c1-c1cc2nc(n1)NS(=O)(=O)c1cccc(c1)C(=O)NCC(c1ccc(Br)cc1)O2 (racemic) [Compound 18, 10-(4-Bromophenyl)-6-(2,6-dimethylphenyl)-2,2-dioxo-9-oxa-2λ^6-thia-3,5,12,19-tetrazatricyclo[12.3.1.14,8]nonadeca-1(18),4(19),5,7,14,16-hexaen-13-one]
Ent. A Max Activity (Table 8): +++ (+++ is >60%)
EC50 (Table 8): < 1000 nM

Cc1cc(C(C)(C)C)ccc1C1CNC(=O)c2cccc(c2)S(=O)(=O)Nc2nc(cc(-c3c(C)cccc3C)n2)O1 (stereo not drawn) [Compound 157]
Ent. A Max Activity (Table 8): +++ (+++ is >60%)
EC50 (Table 8): < 1000 nM

Cc1cccc(C)c1-c1cc2nc(n1)NS(=O)(=O)c1cccc(c1)C(=O)NC[C@H](c1ccc(CCC(C)(C)C)cc1)O2 (stereo in doubt) [Compound 148]
Ent. A Max Activity (Table 9): ++ (++ is 30-60%)
EC50 (Table 9): < 1000 nM

Cc1cccc(C)c1-c1cc2nc(n1)NS(=O)(=O)c1cccc(c1)C(=O)N[C@@H]1CCCCC1O2 (stereo in doubt) [Compound 487]
Ent. A Max Activity (Enteroid Assay A): +++ (+++ is >600%)
EC50 (Enteroid Assay A): < 1000 nM

Cc1cccc(C)c1-c1cc2nc(n1)NS(=O)(=O)c1cccc(c1)C(=O)N[C@@H](C(CC(C)C)c1ccccc1)CO2 (stereo in doubt) [Compound 182]
Ent. A Max Activity (Table 9): ++ (++ is 30-60%)
EC50 (Table 9): < 1000 nM

Cc1cccc(C)c1-c1cc2nc(n1)NS(=O)(=O)c1cccc(c1)C(=O)N[C@@H](CC(F)(F)F)CO2 (single isomer, unassigned) [Compound 93, 6-(2,6-dimethylphenyl)-11-(2,2,2-trifluoroethyl)-9-oxa-2λ^6-thia-3,5,12,19-tetraazatricyclo[12.3.1.14,8]nonadeca-1(17),4(19),5,7,14(18),15-hexaene-2,2,13-trione]
Ent. A Max Activity (Table 9): ++ (++ is 30-60%)
EC50 (Table 9): 3000 to 30000 nM

Cc1cc(C(C)(C)C)ccc1[C@H]1CNC(=O)c2cccc(c2)S(=O)(=O)Nc2nc(cc(-c3c(C)cccc3C)n2)O1 (stereo in doubt) [Compound 156]
Ent. A Max Activity (Table 8): + (+ is <30%)
